Measured values taken from ChEMBL document CHEMBL5505979, “Novel aminothiazoximone-corbelled ethoxycarbonylpyrimidones with antibiofilm activity to conquer Gram-negative bacteria through potential multitargeting effects” (Eur J Med Chem, 2024).
Converted amounts (≈) assume the structure as drawn.

Columns and labels:
Assay type in all cases: functional
Candida parapsilosis = experiment: Anti-fungal activity against Candida parapsilosis assessed as inhibition of fungal growth; settings: Lodderomyces parapsilosis; read-out: MIC
Staphylococcus aureus [1] = experiment: Anti-bacterial activity against Staphylococcus aureus CMCC (B) 26003 assessed as inhibition of bacterial growth
Staphylococcus aureus [2] = experiment: Anti-bacterial activity against Staphylococcus aureus ATCC 25923 assessed as inhibition of bacterial growth; settings: Staphylococcus aureus, ATCC 25923; read-out: MIC
Staphylococcus aureus [3] = experiment: Anti-bacterial activity against methicillin-resistant Staphylococcus aureus N315 assessed as inhibition of bacterial growth; settings: Staphylococcus aureus, N315; read-out: MIC
Candida albicans [4] = experiment: Anti-fungal activity against Candida albicans 90023 assessed as inhibition of fungal growth
Klebsiella pneumoniae = experiment: Anti-bacterial activity against Klebsiella pneumoniae KPN325 assessed as inhibition of bacterial growth; settings: Klebsiella pneumoniae, KPN325; read-out: MIC
Staphylococcus aureus [5] = experiment: Anti-bacterial activity against Staphylococcus aureus ATCC 12600 assessed as inhibition of bacterial growth; settings: Staphylococcus aureus, ATCC 12600; read-out: MIC
Pseudomonas aeruginosa [6] = experiment: Anti-bacterial activity against Pseudomonas aeruginosa ATCC 15442 assessed as inhibition of bacterial growth; settings: Pseudomonas aeruginosa, ATCC 15442; read-out: MIC
Staphylococcus aureus [7] = experiment: Anti-bacterial activity against Staphylococcus aureus CMCC (B) 26001 assessed as inhibition of bacterial growth
Candida albicans [8] = experiment: Anti-fungal activity against Candida albicans assessed as inhibition of fungal growth; settings: Candida albicans; read-out: MIC
Pseudomonas aeruginosa [9] = experiment: Anti-bacterial activity against Pseudomonas aeruginosa ATCC 27853 assessed as inhibition of bacterial growth; settings: Pseudomonas aeruginosa, ATCC 27853; read-out: MIC
Escherichia coli [10] = experiment: Anti-bacterial activity against Escherichia coli ATCC 25922 assessed as inhibition of bacterial growth
Pseudomonas aeruginosa [11] = experiment: Anti-bacterial activity against Pseudomonas aeruginosa ST235 assessed as inhibition of bacterial growth; settings: Pseudomonas aeruginosa, ST235; read-out: MIC
Staphylococcus aureus [12] = experiment: Anti-bacterial activity against Staphylococcus aureus ATCC 1708 assessed as inhibition of bacterial growth; settings: Staphylococcus aureus, ATCC 1708; read-out: MIC
Enterococcus faecalis = experiment: Anti-bacterial activity against Enterococcus faecalis V583 assessed as inhibition of bacterial growth
Escherichia coli [13] = experiment: Anti-bacterial activity against Escherichia coli JM109 assessed as inhibition of bacterial growth
Staphylococcus aureus [14] = experiment: Anti-bacterial activity against methicillin-resistant Staphylococcus aureus ATCC 43300 assessed as inhibition of bacterial growth; settings: Staphylococcus aureus, ATCC 43300; read-out: MIC
Candida tropicalis = experiment: Anti-fungal activity against Candida tropicalis assessed as inhibition of fungal growth; settings: Candida tropicalis; read-out: MIC
Staphylococcus aureus [15] = experiment: Anti-bacterial activity against Staphylococcus aureus ATCC 6538 assessed as inhibition of bacterial growth
Acinetobacter baumannii = experiment: Anti-bacterial activity against Acinetobacter baumannii R674 assessed as inhibition of bacterial growth
Pseudomonas aeruginosa [16] = experiment: Anti-bacterial activity against Pseudomonas aeruginosa CMCC (B) 10104 assessed as inhibition of bacterial growth; settings: Pseudomonas aeruginosa, CMCC (B) 10104; read-out: MIC
Staphylococcus aureus [17] = experiment: Anti-bacterial activity against Staphylococcus aureus ATCC 29213 assessed as inhibition of bacterial growth; settings: Staphylococcus aureus, ATCC 29213; read-out: MIC
Pseudomonas aeruginosa [18] = experiment: Anti-bacterial activity against Pseudomonas aeruginosa ATCC 9027 assessed as inhibition of bacterial growth

Compound	MIC (Candida parapsilosis)	MIC (Staphylococcus aureus [1])	MIC (Staphylococcus aureus [2])	MIC (Staphylococcus aureus [3])	MIC (Candida albicans [4])	MIC (Klebsiella pneumoniae)	MIC (Staphylococcus aureus [5])	MIC (Pseudomonas aeruginosa [6])	MIC (Staphylococcus aureus [7])	MIC (Candida albicans [8])	MIC (Pseudomonas aeruginosa [9])	MIC (Escherichia coli [10])	MIC (Pseudomonas aeruginosa [11])	MIC (Staphylococcus aureus [12])	MIC (Enterococcus faecalis)	MIC (Escherichia coli [13])	MIC (Staphylococcus aureus [14])	MIC (Candida tropicalis)	MIC (Staphylococcus aureus [15])	MIC (Acinetobacter baumannii)	further results
CCOC(=O)C1=C(CN2CCN(C(=O)/C(=N/OC)c3csc(N)n3)CC2)NC(=O)NC1c1ccc(C(F)(F)F)cc1 (centres undefined)	430 µM (≈ 256 µg/mL)	108 µM (≈ 64.3 µg/mL)	27 µM (≈ 16.1 µg/mL)	108 µM (≈ 64.3 µg/mL)	7 µM (≈ 4.17 µg/mL)	108 µM (≈ 64.3 µg/mL)	27 µM (≈ 16.1 µg/mL)	54 µM (≈ 32.2 µg/mL)	54 µM (≈ 32.2 µg/mL)	430 µM (≈ 256 µg/mL)	54 µM (≈ 32.2 µg/mL)	27 µM (≈ 16.1 µg/mL)	54 µM (≈ 32.2 µg/mL)	27 µM (≈ 16.1 µg/mL)	27 µM (≈ 16.1 µg/mL)	27 µM (≈ 16.1 µg/mL)	27 µM (≈ 16.1 µg/mL)	430 µM (≈ 256 µg/mL)	54 µM (≈ 32.2 µg/mL)	27 µM (≈ 16.1 µg/mL)	MIC (Pseudomonas aeruginosa [16]): 27 µM (≈ 16.1 µg/mL); MIC (Staphylococcus aureus [17]): 27 µM (≈ 16.1 µg/mL); MIC (Pseudomonas aeruginosa [18]): 54 µM (≈ 32.2 µg/mL)
CCOC(=O)C1=C(CN2CCN(C(=O)/C(=N/OC)c3csc(N)n3)CC2)NC(=O)NC1c1ccc(N(C)C)cc1 (centres undefined)	412 µM (≈ 235 µg/mL)	225 µM (≈ 128 µg/mL)	112 µM (≈ 63.9 µg/mL)	449 µM (≈ 256 µg/mL)	52 µM (≈ 29.7 µg/mL)	225 µM (≈ 128 µg/mL)	225 µM (≈ 128 µg/mL)	225 µM (≈ 128 µg/mL)	449 µM (≈ 256 µg/mL)	412 µM (≈ 235 µg/mL)	225 µM (≈ 128 µg/mL)	225 µM (≈ 128 µg/mL)	225 µM (≈ 128 µg/mL)	112 µM (≈ 63.9 µg/mL)	28 µM (≈ 16 µg/mL)	112 µM (≈ 63.9 µg/mL)	56 µM (≈ 32 µg/mL)	412 µM (≈ 235 µg/mL)	28 µM (≈ 16 µg/mL)	56 µM (≈ 32 µg/mL)	MIC (Pseudomonas aeruginosa [16]): 225 µM (≈ 128 µg/mL); MIC (Staphylococcus aureus [17]): 225 µM (≈ 128 µg/mL); MIC (Pseudomonas aeruginosa [18]): 225 µM (≈ 128 µg/mL)
CCCCc1nc(Cl)c(C2NC(=O)NC(CN3CCN(CC(=O)c4ccc(C)cc4)CC3)=C2C(=O)OCC)[nH]1 (centres undefined)	460 µM (≈ 256 µg/mL)	460 µM (≈ 256 µg/mL)	58 µM (≈ 32.3 µg/mL)	230 µM (≈ 128 µg/mL)	230 µM (≈ 128 µg/mL)	230 µM (≈ 128 µg/mL)	230 µM (≈ 128 µg/mL)	460 µM (≈ 256 µg/mL)	58 µM (≈ 32.3 µg/mL)	460 µM (≈ 256 µg/mL)	230 µM (≈ 128 µg/mL)	115 µM (≈ 64.1 µg/mL)	58 µM (≈ 32.3 µg/mL)	460 µM (≈ 256 µg/mL)	58 µM (≈ 32.3 µg/mL)	29 µM (≈ 16.2 µg/mL)	115 µM (≈ 64.1 µg/mL)	460 µM (≈ 256 µg/mL)	230 µM (≈ 128 µg/mL)	115 µM (≈ 64.1 µg/mL)	MIC (Pseudomonas aeruginosa [16]): 230 µM (≈ 128 µg/mL); MIC (Staphylococcus aureus [17]): 58 µM (≈ 32.3 µg/mL); MIC (Pseudomonas aeruginosa [18]): 29 µM (≈ 16.2 µg/mL)
